Earlier results in US20100124560A1, “MULTI PORTION INTRA-ORAL DOSAGE FORM AND USE THEREOF” (McNEIL AB, priority 2008, published 2010).
Like-named read-outs stand apart in the source and are kept apart here.

Key:
[1] = pKa value lying in interval 8-9.6

| Solubility in water (in water) | Structure (SMILES) | further results |
| --- | --- | --- |
| 56 g/kg | CSCC[C@H](N)C(=O)O [Methionine] | – |
| 88.5 g/kg | CC(C)[C@H](N)C(=O)O [Valine] | – |
| 22.0 g/kg | CC(C)C[C@H](N)C(=O)O [Leucine] | – |
| 27.9 g/kg | N[C@@H](Cc1ccccc1)C(=O)O [Phenylalanine] | – |

More lines, now with the values behind:

| Structure (SMILES) | Solubility in water (in water) | further results |
| --- | --- | --- |
| N[C@@H](CO)C(=O)O [Serine] | – | pKa value (in interval 8-9.6) [1]: 9.05 |
| NC(=O)CC[C@H](N)C(=O)O [Glutamine] | 42 g/kg | – |
| NCCCC[C@H](N)C(=O)O [Lysine] | – | Solubility in water, g/kg: Very soluble^a)b) |
| CC[C@H](C)[C@H](N)C(=O)O [Isoleucine] | 34.2 g/kg | – |
| N[C@@H](CS(=O)(=O)O)C(=O)O [Cysteic acid] | – | Solubility in water, g/kg (in water): Very soluble |
| N[C@@H](Cc1c[nH]cn1)C(=O)O [Histidine] | 43.5 g/kg | – |
| NC(=O)C[C@H](N)C(=O)O [Aspargine] | – | pKa value (in interval 8-9.6) [1]: 8.73 |
